Assay results as given in patent US12673918B2, “Small molecule RPN13 inhibitors with antitumor properties” (The Johns Hopkins University, priority 2019, dated 2026).
Where two headings read alike, the source gives them in different places. Blank lines part the entries; values can stand above or below the compound they belong to.

Assays:
TOV21G = assay: MTT cytotoxicity assay, TOV21G; conditions: read-out: cytotoxicity IC50 TOV21G; Tables 3A/4B/4C; MTT assay
OV2008 = assay: MTT cytotoxicity assay, OV2008; conditions: read-out: cytotoxicity IC50 OV2008
VU93 [1] = system: VU93
FaDu = assay: cells; conditions: Homo sapiens, read-out: cytotoxicity IC50 FaDu
SSC90 = conditions: human
SKOV3 [2] = assay: MTT cytotoxicity assay, SKOV3; conditions: Homo sapiens, SK-OV-3, read-out: cytotoxicity IC50 SKOV3
HeLa [3] = conditions: human
ID8-vegf = assay: MTT cytotoxicity assay, ID8-vegf; conditions: read-out: cytotoxicity IC50 ID8-vegf, Tables 3A/4B/4C
HCC1395 = assay: MTT cytotoxicity assay, HCC1395; conditions: Homo sapiens, HCC1395, read-out: cytotoxicity IC50 HCC1395
ES2 = assay: MTT cytotoxicity assay, ES2; conditions: read-out: cytotoxicity IC50 ES2; Tables 3A/4B/4C; MTT assay
MCF7 = assay: MTT cytotoxicity assay, MCF7; conditions: read-out: cytotoxicity IC50 MCF7, Tables 3A/4B/4C
OVCAR3 = assay: MTT cytotoxicity assay, OVCAR3; conditions: read-out: cytotoxicity IC50 OVCAR3; Tables 3A/4B/4C; MTT assay
DLD-BRCA2-Ve = assay: MTT cytotoxicity assay, DLD-BRCA2-Ve; conditions: read-out: cytotoxicity IC50 DLD-BRCA2-Ve
DLD1 = assay: MTT cytotoxicity assay, DLD1; conditions: Homo sapiens, DLD-1, read-out: cytotoxicity IC50 DLD1
PEO4 = conditions: read-out: cytotoxicity IC50 PEO4; Tables 3A/4B/4C; MTT assay
PEA2 = conditions: read-out: cytotoxicity IC50 PEA2; Tables 3A/4B/4C; MTT assay
[4] = MTT cytotoxicity assay, RPE1; conditions: human, RPE1 cells
C2KmFvB1 = assay: MTT cytotoxicity assay, C2KmFvB1; conditions: read-out: cytotoxicity IC50 C2KmFvB1, Tables 3A/4B/4C, BRCA2 + Ve
VU93 [5] = assay: MTT cytotoxicity assay, VU93; conditions: read-out: cytotoxicity IC50 VU93, Tables 3A/4B/4C
BR5-FvB1 = assay: MTT cytotoxicity assay, BR5-FvB1; conditions: Mus musculus, read-out: cytotoxicity IC50 BR5-FvB1
BR5-Luc = assay: MTT cytotoxicity assay, BR5-Luc; conditions: read-out: cytotoxicity IC50 BR5-Luc, Tables 3A/4B/4C, BRCA2 − VE
RPE1-ATMKO = assay: MTT cytotoxicity assay, RPE1-ATMKO; conditions: read-out: cytotoxicity IC50 RPE1-ATMKO
DLD-Seckle = assay: MTT cytotoxicity assay, DLD-Seckle; conditions: read-out: cytotoxicity IC50 DLD-Seckle
HeLa cells = assay: XTT cytotoxicity assay, HeLa; assay type: cell-based, human
Text: (§1) The impact of substituents of the aromatic ring on the potency of molecules was also examined. The presence of either an electron withdrawing group (EWG) or an electron donating group (EDG) influences the reactivity of a Michael acceptor towards the target protein but can also impact specificity/selectivity.

SKOV3 cells = assay: XTT cytotoxicity assay, SKOV3; assay type: cell-based, human
Text: as §1

RPN13 = RPN13 (Homo sapiens, UniProt Q16186); assay: Competition with RA190B labeling of 42 kDa cellular target in cell lysate; assay type: binding; set-up: endogenous in cells; running text says HeLa) and OV2008 cell lysates; conditions: cell lysate pre-incubated with compounds (20 μM), then RA190B; HRP-streptavidin blot
Chain of RPN13 (Q16186 whole entry): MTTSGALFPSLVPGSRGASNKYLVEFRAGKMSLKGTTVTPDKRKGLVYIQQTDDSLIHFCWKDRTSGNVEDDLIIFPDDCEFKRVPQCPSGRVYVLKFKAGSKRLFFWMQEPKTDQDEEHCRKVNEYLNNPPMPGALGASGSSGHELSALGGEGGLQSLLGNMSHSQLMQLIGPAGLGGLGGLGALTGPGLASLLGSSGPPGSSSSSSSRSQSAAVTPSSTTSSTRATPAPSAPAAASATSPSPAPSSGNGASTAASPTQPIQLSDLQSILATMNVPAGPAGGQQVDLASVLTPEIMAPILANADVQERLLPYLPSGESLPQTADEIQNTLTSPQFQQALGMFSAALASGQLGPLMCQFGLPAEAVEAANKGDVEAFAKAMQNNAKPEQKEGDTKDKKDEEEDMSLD
Procedure: (§2) FIG. 1B illustrates precleared ES2 cell lysate incubated with compounds (20 μM) or vehicle (DMSO, 1:100) for 45 min and then with RA190B (5 μM) for 45 min at 4° C. by Western blot analysis. Samples were subjected to SDS-PAGE, transfer to PVDF membrane, and after probing with HRP-streptavidin, binding was detected using chemiluminescence.
as §2, with “2B” for “1B”, “OV2008” for “ES2”, “(10” for “(5”, “binding of” for “after probing with”, “HRP-streptavidin,” for “HRP-streptavidin, binding was”
Biotinylated RA190 (RA190B, FIG. 1A) is utilized as a probe to detect covalent binding to its cellular target(s) in detergent lysates of cancer cell lines (10). […] Here, the ability of compounds (FIG. 1A) to compete with RA190B binding to its 42 kDa cellular target (FIG. 1B) were examined. Compounds, including bortezomib as a negative control, were incubated with HeLa cell lysate and then RA190B added.
Biotin labeling Assay: Clarified cell lysate in MPER buffer was pretreated with streptavidin magna beads for 45 min at 4° C. to deplete non-specific biotinylated proteins in the cell lysate. The beads were separated and 40 μL of the pre-cleared cell lysate was incubated with compounds (20 μM) for 45 min at 4° C., and then treated with RA183B, RA190B, or RA413SB (10 μM) for 45 min at 4° C. Next, the samples were mixed with Laemmli sample buffer (BioRad) and boiled for 5 min. […] (24 V). The membrane was blocked with 5% BSA in PBST for 1 hr at RT and washed for 20 minutes (3× with PBST). Then the membrane was probed with HRP-streptavidin (1:10,000 in PBST) for 1 hr at RT, washed for 30 min (3× with PBST), and developed using HyGLO chemiluminescent detection reagent (Denville) for biotin detection.

[6] = system: high molecular weight polyubiquitinated proteins; assay: Western blot of polyubiquitinated proteins, ES2 cells; assay type: cell-based, human; conditions: 1 μM, 4 hr
Procedure: FIG. 1C illustrates ES2 cells treated with compounds (1 μM, 4 hr), lysed and the samples probed with ubiquitin or actin-specific antibody by Western blot analysis.
Antibodies, reagents, and Western Blot Analyses: Cell lysate (10-20 μg total protein) prepared in MPER (Pierce) from each sample was subjected to SDS-PAGE, transferred to PVDF membranes and analyzed by Western blot using antibodies specific Bax (#2772, Cell Signaling), ubiquitin (P4D1, sc-8017, Santa Cruz), PARP (#9542, BD Pharmingen), actin (#66009, Protein Tech Group), Tubulin(#66031, Protein Tech Group), ADRM1/Rpn13 (D9Z1U, #12019, Cell Signaling), Lys48-linkled ubiquitin (Apu 2, 05-1307, (Millipore), Annexin V (#559763, BD pharmingen), caspase-3 (51-68655X, BD Pharmingen) at the dilutions recommended by the manufacturers, and for secondary antibodies either peroxidase-linked anti-mouse IgG or anti-rabbit IgG (GE Healthcare UK Ltd) were utilized, HRP conjugated streptavidin (N100, Thermo Fisher) at the recommended dilution (1:5000). MitoTracker Red CMXRos reagent was purchased from ThermoFisher #M7512. The blots were developed using HyGLO chemiluminescent detection reagent (Denville).

SKOV3 [7] = system: SKOV3
HeLa [8] = assay: MTT cytotoxicity assay, HeLa; conditions: read-out: cytotoxicity IC50 HeLa, Tables 3A/4B/4C
UWB1.289 + BRCA1 = assay: MTT cytotoxicity assay, UWB1.289 + BRCA1; assay type: cell-based; conditions: Tables 3A/4B/4C, BRCA1 + Ve
CaSki = assay: MTT cytotoxicity assay, CaSki; conditions: read-out: cytotoxicity IC50 CasKi; Tables 3A/4B/4C; MTT assay
TC1-Lu = assay: MTT cytotoxicity assay, TC1-Lu; conditions: read-out: cytotoxicity IC50 TC1-Lu; Tables 3A/4B/4C; MTT assay
KLE = assay: MTT cytotoxicity assay, KLE; conditions: read-out: cytotoxicity IC50 KLE, Tables 3A/4B/4C
HEC-1A = assay: MTT cytotoxicity assay, HEC-1A; conditions: read-out: cytotoxicity IC50 HEC-1A, Tables 3A/4B/4C
SiHa = assay: MTT cytotoxicity assay, SiHa; conditions: read-out: cytotoxicity IC50 SiHa; Tables 3A/4B/4C; MTT assay
[9] = Table 1, XTT assay, read-out: IC50 HeLa
[10] = Table 1, XTT assay, read-out: IC50 SKOV3

Structure (SMILES): CC1/C(=C\c2ccc([N+](=O)[O-])cc2)C(=O)/C(=C/c2ccc([N+](=O)[O-])cc2)CN1C(=O)[C@@H](N)Cc1ccccc1 (mixture of isomers) [RA413]
IC50 (TOV21G): 42 nM
IC50 (OV2008): 150 nM
IC50 (VU93 [1]): 625 nM
IC50 (FaDu): 300 nM
IC50 (SSC90): 312 nM
IC50 (SKOV3 [2]): 86 nM
IC50 (HeLa [3]): 96 nM
IC50 (ID8-vegf): 192 nM

Structure (SMILES): CC1/C(=C\c2ccc(F)cc2)C(=O)/C(=C/c2ccc(F)cc2)CN1C(=O)[C@@H](N)Cc1ccccc1 (mixture of isomers) [RA462]
IC50 (HCC1395): 250 nM
IC50 (ES2): 96 nM
IC50 (SKOV3 [2]): 112 nM
IC50 (MCF7): 750 nM
IC50 (ID8-vegf): 123 nM
IC50 (OVCAR3): 105 nM

Structure (SMILES): CC1/C(=C\c2ccccc2F)C(=O)/C(=C/c2ccccc2F)CN1C(=O)[C@@H](N)Cc1ccccc1 (mixture of isomers) [RA467]
IC50 (HCC1395): 250 nM
IC50 (DLD-BRCA2-Ve): 502 nM
IC50 (DLD1): 474 nM
IC50 (ES2): 112 nM
IC50 (SKOV3 [2]): 126 nM
IC50 (MCF7): 750 nM
IC50 (ID8-vegf): 167 nM
IC50 (OVCAR3): 120 nM

Structure (SMILES): N.N.[Cl][Pt][Cl] [CP, Cisplatin]
IC50 (PEO4): 19500 nM
IC50 (PEA2): 9850 nM

Structure (SMILES): O=C(c1cc(Cc2n[nH]c(=O)c3ccccc23)ccc1F)N1CCN(C(=O)C2CC2)CC1 [OLA, olaparib, reference compound]
IC50 [4]: 23200 nM
IC50 (HCC1395): 750 nM
IC50 (DLD-BRCA2-Ve): 2.5 nM
IC50 (C2KmFvB1): 7960 nM
IC50 (VU93 [5]): 30 nM
IC50 (BR5-FvB1): 30 nM
IC50 (DLD1): 23000 nM
IC50 (BR5-Luc): 500 nM
IC50 (RPE1-ATMKO): 2.6 nM
IC50 (DLD-Seckle): 1.7 nM

Structure (SMILES): Cl.NC(Cc1ccccc1)C(=O)N1CC(=CC=Cc2ccccc2)C(=O)C(=CC=Cc2ccccc2)C1 (centres unmarked) [RA181C]
IC50 (HeLa cells; [9]): > 2500 nM
IC50 (SKOV3 cells; [10]): > 2500 nM
competition with RA190B binding to 42 kDa cellular target (RPN13): failed to compete binding by RA190B
accumulation of high molecular weight polyubiquitinated proteins [6]: only minimal accumulation of polyubiquitinated proteins

Structure (SMILES): Cl.NC(Cc1ccccc1)C(=O)N1CC(=Cc2ccccc2)C(=O)C(=Cc2ccccc2)C1 (centres unmarked) [RA181]
IC50 (HeLa cells; [9]): 63 nM
IC50 (SKOV3 cells; [10]): 89 nM
competition with RA190B binding to 42 kDa cellular target (RPN13): competed labeling by RA190B to a greater extent
accumulation of high molecular weight polyubiquitinated proteins [6]: rapid accumulation of high molecular weight polyubiquitinated proteins

Structure (SMILES): Cl.NC(Cc1ccccc1)C(=O)N1C2CCC1C(=Cc1ccc(Cl)c(Cl)c1)C(=O)C2=Cc1ccc(Cl)c(Cl)c1 (centres unmarked) [RA338]
IC50 (HeLa cells; Table 2, read-out: IC50 HeLa (bridge compounds)): 66 nM
IC50 (SKOV3 cells; Table 2, read-out: IC50 SKOV3 (bridge compounds)): 81 nM
competition with RA190B binding to 42 kDa cellular target (RPN13): competed labeling by RA190B to a greater extent
accumulation of high molecular weight polyubiquitinated proteins [6]: rapid accumulation of high molecular weight polyubiquitinated proteins

IC50 (SKOV3 [7]): 161 nM
Structure (SMILES): C[C@@H]1/C(=C\c2ccc([N+](=O)[O-])cc2)C(=O)/C(=C/c2ccc([N+](=O)[O-])cc2)CN1C(=O)[C@@H](N)Cc1ccccc1 [RA413R]
IC50 (TOV21G): 20 nM
IC50 (HeLa [8]): 172 nM
IC50 (UWB1.289 + BRCA1): < 20 nM
IC50 (CaSki): 220 nM
IC50 (TC1-Lu): 1800 nM
IC50 (KLE): 1430 nM
IC50 (HEC-1A): 268 nM
IC50 (SiHa): 139 nM

Structure (SMILES): CC[C@]1(O)C[C@H]2CN(CCc3c([nH]c4ccccc34)[C@@](C(=O)OC)(c3cc4c(cc3OC)N(C=O)[C@H]3[C@@](O)(C(=O)OC)[C@H](OC(C)=O)[C@]5(CC)C=CCN6CC[C@]43[C@@H]65)C2)C1 [Vin, Vincristine]
IC50 (C2KmFvB1): 13.4 nM
